Experimental data: PubChem BioAssay (NCI)
“And” between values parts separate entries of the source, which are not always exact repeats. Identical values can stand only once.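 Cultured in 96-well plates, cells were exposed to test compound for 48 hours across five concentrations. GI50 = concentration required for 50% inhibition of growth. TGI: concentration producing complete growth inhibition.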

Legend:
Test in all cases: NCI anticancer screen, dose series, 48 h
[1] = test system: PC-3 prostate
[2] = test system: RXF 393 renal
[3] = test system: OVCAR-3 ovarian
[4] = test system: OVCAR-4 ovarian
[5] = test system: BT-549 breast
[6] = test system: IGROV1 ovarian
[7] = test system: COLO 205 colon
[8] = test system: UACC-62 melanoma
[9] = test system: SK-OV-3 ovarian
[10] = test system: A549 NSCLC

Row | Structure (SMILES) | GI50 [1] [µM] | TGI [1] [µM] | GI50 [2] [µM] | TGI [2] | GI50 [3] [µM] | TGI [3] | GI50 [4] [µM] | TGI [4] | GI50 [5] [µM] | TGI [5] [µM] | GI50 [6] [µM] | TGI [6] | GI50 [7] [µM] | TGI [7] | GI50 [8] [µM] | TGI [8] [µM] | GI50 [9] [µM] | TGI [9] | GI50 [10] [µM] | TGI [10]
1 | Cn1cncc1[C@@](N)(c1ccc(Cl)cc1)c1ccc2c(c1)c(-c1cccc(Cl)c1)cc(=O)n2C | 1.47 | 7.99 | 2.41 | 11.5 µM | 2.55 | 7.86 µM | 2.14 | 14.7 µM | 3.16 | 14.4 | 2.33 | 13 µM | 2.31 | 9.09 µM | 0.42 | 12.5 | 7.24 | 21.2 µM | 2.05 | 10.2 µM
2 | O=C1CC(c2ccc(N3CCOCC3)cc2)(c2ccsc2)NC(=O)C1Sc1ccccc1Cl (centres undefined) | 53.1 | > 100 | 5.65 | > 100 µM | 67 | > 100 µM | > 100 | > 100 µM | 16.7 | > 100 | 22.4 | > 100 µM | > 100 | > 100 µM | 53.1 | > 100 | > 100 | > 100 µM | > 100 | > 100 µM
3 | Nc1nc(N)c(N=O)c(Nc2ccc(O)cc2)n1 |  | > 100 |  | > 100 µM |  | > 100 µM |  | > 100 µM |  | > 82.9 |  | 44.8 µM |  | > 100 µM |  | > 100 |  | 45.1 µM |  | > 100 µM
4 | CCC(C)(C)C(=O)O[C@H]1C[C@@H](C)C=C2C=C[C@H](C)[C@H](CC[C@@H]3C[C@@H](O)CC(=O)O3)[C@H]21 | 0.367 | 14.5 | 2.06 | 8.5 µM and 2.48 µM | 8.77 | 21.4 µM and > 30 µM | 6.1 | 20.5 µM and > 30 µM | 4.61 | 18.2 | 2.08 | 13.2 µM and 4.5 µM | 4.14 | 14.7 µM and 23.6 µM | 0.578 |  | 7.56 | 21 µM and > 30 µM | 6.79 | 20.4 µM and 18.8 µM
5 | CC(C)(C)NC(C1=CC(C)(C)c2ccccc2C1=O)c1ccccc1 (centres undefined) | 1.63 | 3.42 | 1.22 | 2.53 µM | 1.31 | 2.58 µM | 1.51 | 5.93 µM | 1.61 | 4.92 | 1.52 | 4.87 µM | 1.35 | 2.63 µM | 1.3 | 2.82 | 3.04 | 12.1 µM | 2.16 | 5.25 µM
6 | COc1cc2c3c(n(CCCCOC(=O)C(F)(F)F)c(=O)c2cc1OC)-c1cc2c(cc1C3=O)OCO2 | > 100 | > 100 | > 100 | > 100 µM | > 89.8 | > 100 µM | > 100 | > 100 µM | > 100 | > 100 | > 26.3 | > 100 µM | > 100 | > 100 µM | > 100 | > 100 | > 100 | > 100 µM | > 100 | > 100 µM
7 | CCCN(CCC)C(=O)C1=Cc2ccc(-c3ccc(C(=O)N4CCCC4)cc3)cc2N=C(N)C1 | 8.56 | > 95.4 | 5.13 | 19.3 µM | 8.19 | 26.2 µM | 9.45 | 69.5 µM | 12.8 | 33.3 | 14.4 | 54.8 µM | 4.26 | 16.3 µM | 9.17 | 26.4 | 18.2 | 87 µM | 7.69 | 35.3 µM
8 | COc1cc(NS(C)(=O)=O)ccc1Nc1c2ccc(Cl)cc2nc2c(OC)cccc12 | 0.782 | 15.2 | 0.411 | 3.04 µM | 0.719 | 2.51 µM | 2.32 | 16.7 µM | 0.441 | 2.24 | 0.331 | 6.89 µM | 0.182 | 2.35 µM | 0.189 | 2.96 | 0.117 | 2 µM | 0.0135 | 1.35 µM
9 | c1ccc(Cn2cc3c(c2-c2ccccc2)CCc2cnoc2-3)cc1 | 6.13 | > 100 | 4.94 | 61.2 µM | 3.73 | 24.7 µM | 10.7 | > 100 µM | 6.63 | 56.1 | 5.51 | > 100 µM | 2.9 | 11.1 µM | 4.48 | > 100 | 7.36 | > 100 µM | 5.73 | > 100 µM
10 | CC[C@@H](C(=O)[C@@H](C)[C@@H](O)[C@H](C)[C@@H]1O[C@@H]([C@@H](CC)C(=O)O)CC[C@@H]1C)C1O[C@]2(C=CC(=O)[C@]3(CC[C@@](C)([C@H]4CC[C@](O)(CC)[C@H](C)O4)O3)O2)[C@H](C)C[C@@H]1C (some centres undefined) | 0.0665 | 15.5 | 0.0416 | 1.79 µM | 0.0547 | 12.5 µM | 1.1 | 17.9 µM | 0.22 | 13.1 | 2.44 | 20.4 µM | 0.159 | 2.1 µM | 1.29 | 2.67 | 3.7 | 16 µM | 0.342 | 22.7 µM
11 | CCN(CC)CCCC(C)Nc1cnc(C(=O)Nc2ccc(Cl)c3cccnc23)cn1 (centres undefined) | 1.32 | 2.82 | 1.64 | 3.36 µM | 2.01 | 3.97 µM | 2.42 | 6.99 µM | 1.59 | 3.08 | 1.62 | 4.11 µM | 1.58 | 3.23 µM | 1.85 | 3.43 | 12.9 | 26 µM | 2.71 | 11.8 µM
12 | CC1=CC(=NC(=O)CBr)C=C/C1=N\S(=O)(=O)c1ccccc1 | 3.17 | 13.2 | 1.77 | 3.89 µM | 2.04 | 4.47 µM | 2.61 | 13.2 µM | 3.15 | 10.6 | 3.1 | 12.1 µM | 5.96 | 21.2 µM | 2.58 | 10.7 | 14.2 | 27.7 µM | 13.9 | 34.8 µM
13 | C/C=C(\C)C(=O)N[C@H]1CC[C@]2(C)C3CC[C@@]4(C)C(CC[C@@H]4C(C)N(C)C)C3CCC2[C@H]1OC(C)=O (some centres undefined) | 2.05 | 6.59 | 1.57 | 3.03 µM | 1.59 | 4.34 µM | 2.43 | 14.6 µM | 2.07 | 5.48 | 2.38 | 8.86 µM | 1.59 | 3.06 µM | 1.95 | 3.74 | 2.06 | 4.27 µM | 2.07 | 4.69 µM
14 | Cc1nn(-c2nc3ccccc3s2)c(C)c1Oc1ccccc1O | 6.58 | > 100 | 3.09 | 8.38 µM | 9.98 | 21.5 µM | 10.3 | 29.5 µM | 12 | 25.5 | 12.6 | 35.8 µM | 15.7 | 31.1 µM | 2.91 | 18.1 | 7.57 | 24.8 µM | 6.14 | 22.5 µM
